Series [1] has as its system NO production in LPS-stimulated RAW 264.7 macrophages. Kind of series: NO production (Griess assay) in LPS-stimulated macrophages. Format: cell-based, murine. The settings on record: Mus musculus, RAW264.7, 24 h, RAW 264.7, LPS 100 ng/mL, Griess. Here is the method: The anti-inflammatory potential of chalcones 1–7 was evaluated in macrophages cultured in the presence or absence (control) of LPS, as depicted in Figure 4. Under basal conditions (unstimulated, control), macrophages produce low levels of nitrites (≈12%). […] Each chalcone was tested at concentrations previously established as non-cytotoxic in macrophages, trying to ensure that observed changes in NO levels were not due to reduced cell viability.
The production of NO was evaluated by measuring nitrite accumulation in culture supernatants using the previously described Griess assay. Cells were seeded at a concentration of 5.0 × 10^4 cells/mL in a 96-well plate (200 μL/well) and allowed to stabilize overnight at 37 °C. Afterwards, the cells were treated with different concentrations of compound solutions and pre-incubated for 1 h at 37 °C. Subsequently, an LPS in PBS solution was added to each well, achieving a final concentration of 100 ng/mL, and the plate was left to incubate for 24 h. An amount of 150 μL of the cell culture supernatant was then transferred to a fresh 96-well plate, and an equal amount of Griess reagent [comprising a 1:1 mixture of 1% (w/v) sulphanilamide in 5% (v/v) phosphoric acid and 0.1% (w/v) naphthylethylenediaminedihydrochloride] was added. Following a 30 min incubation at room temperature in the dark, the absorbance was recorded at 550 nm using a Biotek Synergy HT plate reader (Biotek, CA, USA). The nitrite concentration in the supernatants was determined by comparing the absorbance of each sample to a sodium nitrite standard curve. The results, obtained from at least three independent experiments performed in duplicate, were expressed as a percentage of NO production by cells versus chemical concentration, relative to LPS condition (100%).
Figure 4 NO production by macrophages treated with LPS (100 ng/mL) or not (control) in the presence of chalcones 1–7. Results are expressed as a percentage of NO production by cells treated with LPS (100 ng/mL). Each value represents the mean ± SEM of four independent experiments in duplicate. Statistical analysis: one ANOVA with Dunnett’s multiple comparisons test, where p< 0.05 was considered significant. *** p < 0.005, relative to the control, and ^# p < 0.05, ^## p < 0.01, ^### p < 0.0005, and ^#### p < 0.0001, relative to LPS condition.
(Griess reagent forms a coloured azo dye with nitrite.)

The next series has as its system RAW 264.7 macrophages. The series is described as follows: Resazurin cell viability assay in RAW 264.7 macrophages. Format: cell-based, murine. The settings on record: RAW 264.7, 24 h. Here is the method: (§1) To evaluate the effects of chalcones 1–7 on cell viability after 24 h, a resazurin assay was performed using two cell lines: human HaCaT keratinocytes (HaCaT, CLS 300493), representing the epidermal layer, and murine RAW 264.7 macrophages (RAW 264.7, ATCC TIB-71), which model immune cells involved in dermal inflammatory responses. For the keratinocyte cell line, all seven brominated and non-brominated chalcones were tested across a concentration range from 2.5 μM to 125 μM (Figure 2).
To evaluate the cytotoxic effects of brominated and non-brominated chalcones 1–7 on macrophages, different concentration ranges were applied based on the response profiles previously observed for keratinocytes (Figure 3). […] For this set of chalcones, a similar tendency was observed: a lower cytotoxic characteristic of chalcone 4, which contained bromine atoms in both aromatic rings, compared to chalcones 5 (brominated in only the aromatic A ring) and 6 (non-brominated).
(§2) Human keratinocytes (HaCaT, CLS 300493, Eppelheim, Germany) were cultured in DMEM supplemented with heat-inactivated FBS, and a penicillin and streptomycin antibiotic solution. The cell culture of keratinocytes was washed with 6 mL of phosphate buffer solution with 0.05% EDTA (Sigma-Aldrich, St. Louis, MO, USA) and detached using 3 mL of 0.05% trypsin + 0.02% EDTA in PBS solution when the cells reached 70–80% confluence in cell culture flasks. DMEM was also used to cultivate the mouse macrophage cell line (RAW 264.7, ATCC TIB-71, Manassas, VA, USA) together with 10% (v/v) non-inactivated FBS, 1.5 g/L sodium bicarbonate, and 100 U/mL penicillin and 100 μg/mL streptomycin stock (antibiotic solution). The macrophage culture was mechanically detached using a cell scraper, and the final amount of DMEM media with the cells was sub-cultured in a 1:10 ratio to the cellular suspension.
The resazurin reduction assay was employed to evaluate the metabolic activity of human epidermal keratinocyte (HaCaT) and murine macrophage (RAW264.7) cell lines, as outlined in a previous study. In brief, HaCaT cells (1.0 × 10^5 cells/mL) and RAW264.7 cells (5.0 × 10^4 cells/mL) were seeded in 96-well plates (200 μL/well) and incubated overnight at 37 °C to allow for cell attachment. Following this, the cells were treated with different concentrations of the test compounds and kept at 37 °C for 24 h. After 20 h, resazurin (500 μM in sterile phosphate buffer solution, pH 7.4) was added to each well to achieve a final concentration of 50 μM, followed by an additional incubation of 4 h. Absorbance was then measured at wavelengths of 570 and 620 nm using a SpectraMax Plus 384 absorbance microplate spectrophotometer (Molecular Devices, San Jose, CA, USA). Each experiment was conducted in triplicate, with a minimum of three independent assays. […]

The nature of series [2]: Resazurin cell viability assay in HaCaT keratinocytes. The settings on record: human, HaCaT keratinocytes, resazurin, read-out: IC50 (cell viability, cytotoxicity). It counts as cell-based, human. Here is the method: as §1, §2
(§3) The resazurin reduction assay was employed to evaluate the metabolic activity of human epidermal keratinocyte (HaCaT) and murine macrophage (RAW264.7) cell lines, as outlined in a previous study. In brief, HaCaT cells (1.0 × 10^5 cells/mL) and RAW264.7 cells (5.0 × 10^4 cells/mL) were seeded in 96-well plates (200 μL/well) and incubated overnight at 37 °C to allow for cell attachment. Following this, the cells were treated with different concentrations of the test compounds and kept at 37 °C for 24 h. After 20 h, resazurin (500 μM in sterile phosphate buffer solution, pH 7.4) was added to each well to achieve a final concentration of 50 μM, followed by an additional incubation of 4 h. Absorbance was then measured at wavelengths of 570 and 620 nm using a SpectraMax Plus 384 absorbance microplate spectrophotometer (Molecular Devices, San Jose, CA, USA). Each experiment was conducted in triplicate, with a minimum of three independent assays. The results were graphically presented as the percentage of cell viability versus chemical concentration, relative to the control.
(§4) Figure 2 Cytotoxicity of chalcones 1–7 using a resazurin reduction assay in HaCaT cells by comparison with the control. Bar graphs represent the mean ± SEM of at least three independent experiments performed in triplicate. Statistical analysis: one ANOVA with Dunnett’s multiple comparisons test, where p < 0.05 was considered significant when compared to the control condition. * p < 0.05, ** p < 0.01, and *** p < 0.0005.
On the technique in general: Resazurin is reduced to fluorescent resorufin, in cell work by metabolically active cells.

In a further series the test system is HaCaT keratinocytes. The series is described as above. It counts as cell-based, human. The settings on record: HaCaT, 24 h; for cytotoxicity / impact on keratinocyte viability: at 2.5 μM and 7.5 μM. The method, then:
as §1, §2, §3, §4

What is called IC50 is the concentration that inhibits the measured activity by half.

In the case of `COc1cc(Br)cc(/C=C/C(=O)c2c(Br)c(Br)cc(OC)c2OC)c1OC` [Chalcone 4], in series [1], the IC50 worked out at 0.97 ± 0.22 µM. For the same compound, the “concentration up to which acceptable levels of cytotoxicity were observed” value in the series with RAW 264.7 macrophages is listed as “up to 7.5 μM”. Moreover, in series [2], the IC50 at 24 h stood at 11.7 ± 1.34 µM. Besides, the “cytotoxicity / impact on keratinocyte viability” value in the series with HaCaT keratinocytes is on record as “no significant impact”.
The corresponding values for `COc1cccc(/C=C/C(=O)c2c(Br)c(Br)cc(OC)c2OC)c1OC` [Chalcone 5] are 0.99 ± 0.54 µM, “up to 1 μM”, 30.4 ± 2.66 µM and “no significant impact”.
Turning to `COc1cccc(/C=C/C(=O)c2cccc(OC)c2OC)c1OC` [Chalcone 6], the concentration for half-maximal inhibition (IC50) in series [1] came out at 5.95 ± 1.49 µM. In the series on RAW 264.7 macrophages, the “concentration up to which acceptable levels of cytotoxicity were observed” value is listed as “up to 1 μM”. The IC50 at 24 h in series [2] was 14.7 ± 3.97 µM. Further, the “reduction in cellular viability” value in the series on HaCaT keratinocytes (at 2.5 μM) is listed as about 25%.

Source of the values: PMC12299847, “Macroalgae-Inspired Brominated Chalcones as Cosmetic Ingredients with the Potential to Target Skin Inflammaging” (Marine Drugs, 2025).
